Results taken from patent US20220175744A1, “COMBINATIONS OF TRANSCRIPTION INHIBITORS AND IMMUNE CHECKPOINT INHIBITORS FOR TREATMENT OF DISEASE” (Board of Regents, The University of Texas System, priority 2019, published 2022).

What was measured:
Assay type in all cases: cell-based
p-STAT3 = target: T1, p-STAT3 (Homo sapiens, UniProt P40763); assay: inhibition of p-STAT3 by western blot and immunofluorescence in PDAC cell lines; details: all tested PDAC cell lines; western blot, immunofluorescence
T1 construct: endogenous in cells
T1 sequence (P40763 whole entry): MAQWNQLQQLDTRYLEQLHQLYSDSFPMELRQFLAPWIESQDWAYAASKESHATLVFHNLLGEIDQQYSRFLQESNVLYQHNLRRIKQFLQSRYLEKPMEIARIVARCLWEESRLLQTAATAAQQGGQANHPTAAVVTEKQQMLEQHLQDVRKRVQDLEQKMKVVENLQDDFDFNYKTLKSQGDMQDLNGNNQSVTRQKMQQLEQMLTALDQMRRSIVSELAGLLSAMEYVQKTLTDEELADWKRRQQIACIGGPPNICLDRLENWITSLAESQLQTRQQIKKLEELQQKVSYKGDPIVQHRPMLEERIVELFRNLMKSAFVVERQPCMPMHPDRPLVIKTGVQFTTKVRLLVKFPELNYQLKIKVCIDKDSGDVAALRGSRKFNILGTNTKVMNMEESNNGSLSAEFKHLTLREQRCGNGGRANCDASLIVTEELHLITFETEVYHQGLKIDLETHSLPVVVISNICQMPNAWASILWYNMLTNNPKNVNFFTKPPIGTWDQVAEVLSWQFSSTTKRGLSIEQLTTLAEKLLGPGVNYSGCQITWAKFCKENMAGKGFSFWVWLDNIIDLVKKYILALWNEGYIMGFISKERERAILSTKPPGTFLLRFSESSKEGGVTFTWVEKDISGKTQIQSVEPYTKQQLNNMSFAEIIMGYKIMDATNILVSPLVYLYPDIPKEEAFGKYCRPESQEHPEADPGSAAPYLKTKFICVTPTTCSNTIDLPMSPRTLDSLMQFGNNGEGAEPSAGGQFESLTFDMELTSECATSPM
Procedure: The chemical synthesis of WP1066 and WP1732 and their characterization was performed at U.T. MD Anderson Cancer Center. In vitro efficacy of both inhibitors was assessed using proliferation and apoptosis induction assays in a panel of patient-derived and commercially-available PDAC cell lines. Inhibition of p-STAT3 was investigated using western blot (WB) and immunofluorescence. […] Observed IC50 values ranged from 0.5 to 2 μM.

[1] = test system: patient-derived and commercially-available PDAC cell lines; assay: apoptosis induction assay in PDAC cell lines; details: all tested PDAC cell lines
[2] = test system: patient-derived and commercially-available PDAC cell lines; assay: proliferation assay in a panel of PDAC cell lines; details: range over all tested PDAC cell lines

Structure (SMILES): C[C@H](NC(=O)/C(C#N)=C/c1cccc(Br)n1)c1ccccc1 [WP1066]
- inhibition of p-STAT3 and its nuclear localization (p-STAT3): inhibit p-STAT3 and its nuclear localization
- apoptosis induction [1]: induce apoptosis
- IC50 [2]: 0.5 to 2 µM
